Experimental data: a melting point compilation (Tetko et al.; mined from patent text by program, amines drawn as free bases though some values may be those of a salt)

`N#Cc1ccc(-c2ccc(OCc3ccc4ccccc4n3)cc2)c(-c2ccncc2)c1` gave a melting point of 190 to 193 °C. `Cc1c(S(=O)(=O)c2ccccc2)cc(C(C)(C)C)c(O)c1C(=O)Nc1ccc([N+](=O)[O-])cc1Cl` gave a melting point of 202 to 204 °C. With `O=Cc1cnn(-c2ccc(C(F)(F)F)cc2[N+](=O)[O-])c1Br` the melting point was 195 to 198 °C. `COc1ccc2c(c1)C(=O)N(c1ccc3[nH]c(=O)ccc3c1)C2` showed a melting point of 305 to 310 °C. Compound `CCCCc1nc(Cl)c(C=CC(=O)OCC)n1Cc1ccc(NC(=O)c2ccccc2C(=O)O)cc1` has a melting point of 180 to 181 °C. `COc1ccc(S(=O)(=O)c2cnc(C)nc2Nc2c(C)cc(C)cc2C)cc1` gave a melting point of 153 to 155 °C. `Oc1cccc(CCN2CCCC2)c1` showed a melting point of 99 to 102 °C. With `NC1=NC=C(c2ccc(C(F)(F)F)cc2)c2ccccc2C1` the melting point was 167 to 170 °C. For `Cc1c(C(=O)O)cnn1-c1nc(-c2ccc(C(F)(F)F)cc2)cs1`, the melting point was 273 to 274 °C. For `CCOC(=O)N1CCC(Nc2nc3ccccc3n2Cc2ccc(F)cc2)CC1`, the melting point was 181 °C. `Cc1cc(NCC(O)CO)c2ccccc2n1` (configuration not stated) gave a melting point of 167 to 168 °C. Compound `Clc1ccc2c(c1)CCc1cccnc1C2=C1CCNCC1` has a melting point of 154 to 155 °C. Work on `CCOc1nc2ccccc2nc1NC(=O)N1CCN(c2cccc(C)c2C)CC1` yielded a melting point of 108 to 110 °C. `COc1cc(N)ccc1N1CCN(CCCNc2c(C)c(=O)n(C)c(=O)n2C)CC1` showed a melting point of 146 to 148 °C. With `O=C1NC(=O)C(=Cc2csc(NC(c3ccccc3)(c3ccccc3)c3ccccc3)n2)S1` the melting point was 225 to 228 °C. Compound `Cc1nc2c3c(ccc2n1C)C(=O)[C@H](O)[C@@H](c1ccccc1)O3` has a melting point of 233 °C. Work on `CCOC(=O)/C=C/c1ccc(OCC)nc1Oc1ccc(Cl)cc1Cl` yielded a melting point of 90 to 92 °C. `N#C/C=C1\CCCCC1n1nc(-c2c(-c3ccccc3)nn3ccccc23)ccc1=O` (configuration not stated) showed a melting point of 70 to 72 °C. Compound `CC(C)(C)c1ccc(C(=O)Nc2cn3nc(N)ccc3n2)cc1` has a melting point of 267 to 268 °C. For `O=C(COc1ccccc1Br)c1ccccc1`, the melting point was 112 to 113 °C. `CC(C)(C)c1ccc(C(=O)Nc2cn3nc(NC4CC4)ccc3n2)cc1` gave a melting point of 274 to 275 °C. In the case of `Cc1cc(=O)oc2cc(S)ccc12`, the melting point is reported as 136 °C. With `CSc1nc(-c2ccccc2)n(-c2ccc(C)cc2)c(=O)c1C#N` the melting point was 258 to 260 °C. With `Cc1cc(-c2c3ccccc3c(C)c3sc4ccccc4c23)cc(C)c1OCC(=O)O` the melting point was 155 to 181 °C. With `COc1cc2c(c(OC)c1/C=C/c1ccc(CO)cc1)C(C)(C)CCC2(C)C` the melting point was 102 to 104 °C. In the case of `COc1ccc(CCN(CC(C)C)S(=O)(=O)N[C@@H](Cc2ccc(NC(=O)c3c(Cl)cncc3Cl)cc2)C(=O)O)cc1OC`, the melting point is reported as 192 °C. In the case of `O[C@@H]1CNCC[C@H]1Oc1ccc2c(c1)CCCC2` (relative stereo), the melting point is reported as 125 to 127 °C. For `O=C(Nc1cccc(Cl)c1)N1CCNC1=N[N+](=O)[O-]`, the melting point was 214 to 216 °C. For `COc1ccc(-c2c(Cl)c(CCl)nc3sc4c(c23)CCN(C(=O)c2ccccc2)C4)cc1OC`, the melting point was 208 to 209 °C. `COC(=O)Cn1c(=O)c(=O)[nH]c2cc([N+](=O)[O-])c(Cl)cc21` gave a melting point of over 260 °C. `CCc1cc(C(=O)c2ccccc2Cl)c(-n2c(CNC(=O)c3cc4ccccc4[nH]3)nnc2-c2ccccc2)s1` showed a melting point of 230 to 232 °C. Compound `CC(C)(C)OC(=O)NN=Cc1ccc(-c2ccccn2)cc1` has a melting point of 169 to 172 °C. In the case of `C=CCn1cc2c(C3C(=O)Nc4ccc(C#N)cc43)ncnc2n1` (configuration not stated), the melting point is reported as over 300 °C. In the case of `CCc1cc(C(=O)c2ccccc2Cl)c(-n2c(CO)nnc2CNC(=O)c2ccc(Cl)c(Cl)c2)s1`, the melting point is reported as 125 to 128 °C. Compound `Oc1ccc(-c2cc3cc(Br)cc(Br)c3o2)cc1` has a melting point of 203 to 205 °C. With `COc1cccc(OCCCCC(=O)O)c1C=O` the melting point was 99 to 101 °C. Work on `O=S(=O)(c1ccc(Cl)cc1)C1(c2nnnn2Cc2ccccc2)CCCCC1` yielded a melting point of 154 to 155 °C. Work on `OC1Cc2cc(Br)ccc2Sc2ccccc21` (configuration not stated) yielded a melting point of 108 to 110 °C. Compound `CCOC(=O)C(O)c1cc(Cl)cc2cccnc12` (configuration not stated) has a melting point of 121 to 124 °C. With `CCOC1CC2(C)C(CCC3C4CCC(C(=O)CBr)C4(C)CC(=O)C32)CC1O` (configuration not stated) the melting point was 74 to 78 °C. For `CCOC(=O)C(N)=NOC(=O)c1ccc(F)cc1`, the melting point was 196 to 198 °C. In the case of `CC1(C)NC(=O)N(c2ccc(F)c(C(F)(F)F)c2)C1=O`, the melting point is reported as 111 to 114 °C. For `CC(Oc1ccc(C(F)(F)F)cc1)c1ccnc2ncnn12` (configuration not stated), the melting point was 100 to 102 °C. For `CC(CO)c1ccc(-c2ccccc2F)c(F)c1` (configuration not stated), the melting point was 80 to 82.5 °C. With `CC1NC(=Nc2ccccc2N2CCOCC2)NC1C` (configuration not stated) the melting point was 142 to 143 °C. With `CCOC(=O)c1ccc(NC(=O)c2cccnc2)cc1` the melting point was 125 to 127 °C. With `COc1ccc2c(c1)c(CC(=O)OCC(=O)NCCO[N+](=O)[O-])c(C)n2C(=O)c1ccc(Cl)cc1` the melting point was 128 to 129 °C. `CCc1cc2c(cc1C#Cc1ccc(C)cc1)C(C)(C)CCC2(C)C` gave a melting point of 72 to 73 °C. Work on `CC(=O)n1nc(C2CCN(CCc3c(C)nc4c(C)cccn4c3=O)CC2)c2ccc(F)cc21` yielded a melting point of 210 °C. `CC(CCCC(O)(C(F)(F)F)C(F)(F)F)C1CCC2C3CC=C4CC(O)CC(O)C4(C)C3CCC12C` (configuration not stated) gave a melting point of 201 to 202 °C. `Cc1noc(CC(=O)Nc2ccccc2Cl)n1` showed a melting point of 118 to 120 °C. For `COc1cc2c(cc1/C=C/CCO)[nH]c1cc(-c3ccccc3Cl)c3c(c12)C(=O)NC3=O`, the melting point was 271 to 275 °C. `C=CC(=O)O[C@H]1CC[C@H](c2ccccc2)CC1` showed a melting point of 67.3 °C. With `COc1cccnc1CCCCNc1nc(=O)c(C(O)c2ccc(C)nc2)c[nH]1` (configuration not stated) the melting point was 82 °C. Compound `COc1ccc(CSc2nnc(-c3ccc4ncsc4c3)o2)cc1C#N` has a melting point of 181 to 182 °C. Compound `CCN1CN(c2cccc(F)c2)c2ncccc2C1=O` has a melting point of 123 to 124 °C. For `Cn1ncc(-c2ccc3c(c2)c(C2CCN(CCN4CCNC4=O)CC2)cn3-c2ccc(F)cc2)n1`, the melting point was 203 to 204 °C. `COc1ccc(C(=O)c2c(-c3ccccc3)oc3ccc([N+](=O)[O-])cc23)cc1` gave a melting point of 153 °C. Compound `NC(=NCC(F)(F)F)Nc1ccnc(CCCCc2c[nH]cn2)n1` has a melting point of 191 to 193 °C. `CC(=O)CCN(Cc1ccccc1)Cc1ccccc1` showed a melting point of 58 to 59 °C. In the case of `CCCCCCCCCCCCNCC(O)CO` (configuration not stated), the melting point is reported as 75 to 76 °C. With `CC(=O)OC1CSC(Oc2cccc(-c3ccc(F)cn3)c2)C(OC(C)=O)C1OC(C)=O` (configuration not stated) the melting point was 113 °C. For `CC1(O)CC(=O)OC(CCc2ccc(Cl)cc2)C1Br` (configuration not stated), the melting point was 116 to 119 °C. `CC(C)NC(=O)c1cnc(N2CCC(N3C(=O)COc4ccccc43)CC2)c(Cl)c1` gave a melting point of 85 to 88 °C. In the case of `O=C(O)Cc1[nH]nc2c1CCCC2`, the melting point is reported as 155 to 156 °C. `CCCC1COc2c(Cc3ccc(C(C)C)cc3)c(C)c(NC(=O)CC(C)(C)C)c(C)c21` (configuration not stated) showed a melting point of 144 to 145 °C. `O=C1CCC(N2C(=O)c3ccc(CNC(=O)c4ccc(SC(F)(F)F)cc4)cc3C2=O)C(=O)N1` (configuration not stated) showed a melting point of 171 to 173 °C. `COc1ccc(C(=O)CCCN2CCC(OC(=O)c3cc(Cl)c(N)c4c3OCC4)CC2)cc1` showed a melting point of 136 °C. For `Cc1oc(-c2ccccc2)nc1CCc1noc(COc2cccc(CC(=O)O)c2)n1`, the melting point was 93 to 94 °C. With `CN1C(=O)C(NC(=O)Nc2cccc(I)c2)N=C(N2CC3CCC(CC3)C2)c2ccccc21` (single isomer, unassigned; (+)) the melting point was 220 to 222 °C. With `CC#CCOc1ccc(SC(C(=O)NO)c2cccc(Cl)c2)cc1` (configuration not stated) the melting point was 127 °C. Compound `CC(=O)Nc1ccc(C=CC(=O)N2CCc3c([nH]c4ccccc34)C2c2ccc3c(c2)OCO3)cc1` (configuration not stated) has a melting point of 185 °C. `NCc1cccc(-c2cnc(-c3ccc(Cl)c(Cl)c3)[nH]2)c1` gave a melting point of over 250 °C. With `N#CC(C(=O)Nc1ccccc1Cl)C(=O)c1nn(-c2ccccc2)c2c1Cc1ccccc1-2` (configuration not stated) the melting point was 295 to 297 °C. In the case of `COC(=O)c1ccc2c(c1)CCN2Cc1cccc([N+](=O)[O-])c1`, the melting point is reported as 99 to 100 °C. In the case of `CC1COc2c(F)c(F)c(N)c3c(=O)[nH]c(=O)n1c23` (configuration not stated), the melting point is reported as over 280 °C. For `Oc1cccc2c1c1cccc(F)c1n2Cc1ccccc1`, the melting point was 155 to 156 °C. `CC(C)(C)c1cccc(C[C@@H](NC(=O)c2cccc3c(Cl)cccc23)[C@@H](O)c2cccc(Cl)c2)c1` (racemic) showed a melting point of 91 to 93 °C. With `CC(C)(C)[Si](C)(C)Oc1ccc2c(c1)OC(c1ccc(O)cc1)c1c-2sc2cc(O[Si](C)(C)C(C)(C)C)ccc12` (configuration not stated) the melting point was 174 to 175 °C. For `Nc1cc(CC(=O)O)cc2c1NC(C(F)(F)F)CC2` (configuration not stated), the melting point was 180 to 181 °C. Work on `Cc1ccc2c(c1)cc(CCCC(=O)O)n2S(=O)(=O)c1ccc2ncsc2c1` yielded a melting point of 128 °C. `OC1c2cc(OCc3ccc4ccccc4n3)ccc2OCC1Oc1cccnc1` (configuration not stated) showed a melting point of 126 to 128 °C. `COc1cc(-c2cnc3[nH]cc(C(=O)NCC(C)(C)CO)c3n2)cc(OC)c1OC` gave a melting point of 224 to 225 °C. Work on `CCOC(=O)COC(=O)c1cc(-n2nc3ccc(Cl)cn3c2=O)c(F)cc1Cl` yielded a melting point of 62 to 65 °C. Compound `N#Cc1c(Cl)nc2n(c1=O)CCS2` has a melting point of 148 to 150 °C. `COc1ccccc1-n1c(=O)[nH]c2c(C(N)=O)nc(-c3ccnc(O)c3)nc21` gave a melting point of 360 to 362 °C. `O=C(c1ncc[nH]1)C1CCN(Cc2ccccc2)CC1` showed a melting point of 121 °C. `CCCCS(=O)CCCNc1cc2oc(=O)[nH]c2cc1F` (configuration not stated) showed a melting point of 116 to 117 °C. With `NNc1nc(F)c(CC(F)(F)F)cc1Cl` the melting point was 104 to 106 °C. Work on `NCCc1ccc(CCNS(=O)(=O)c2ccc(Cl)cc2)cc1` yielded a melting point of 90 to 93 °C. Work on `COc1ccc(Br)cc1C(C)(C)CCl` yielded a melting point of 82 to 84 °C. `O=C(O)CCCCc1ccc([N+](=O)[O-])cn1` showed a melting point of 105 to 107 °C. In the case of `CC(C)(CCCCCCC(C)(C)CCC(=O)O)CCC(=O)O`, the melting point is reported as 88 to 89 °C. For `CC(C)c1ccc(N(Cc2ccc(N(C)C)cc2)C(=O)C2CCCc3c(O)cccc32)cc1` (configuration not stated), the melting point was 200 to 202 °C. With `CCOC(=O)C1=CC(CF)(CF)Oc2ccc(I)cc21` the melting point was 89 to 90 °C. `CC(=O)c1ccc(N(C)Cc2ccccc2)c(S(N)(=O)=O)c1` gave a melting point of 159 to 161 °C. Compound `Cc1cc(Nc2c(C#N)cnc3cc(-c4csc(CN5CCOCC5)c4)ccc23)ccc1OCc1ccccn1` has a melting point of 217 to 219 °C.
